Measured values taken from patent US20230124862A1, “BISMUTH THIOL COMPOUNDS AND COMPOSITIONS AND METHODS OF TREATING MICROBIAL CO-INFECTIONS” (Microbion Corporation, priority 2020, published 2023).
Values after ≈ are worked out from the molar mass of the structure shown. Values joined by “and” are separate entries in the source; they are usually repeats but may differ in a detail not shown here. Equal values may be shown once. Read-outs that look alike come from different tables or passages of the source.

Columns and labels:
[1] = tested on: P. aeruginosa; experiment: Checkerboard FIC/FICI assay; format: cell-based, Pseudomonas aeruginosa; conditions: for FICB / MICB: by checkerboard; for Drug B MIC: Colistin alone (checkerboard with BisEDT)
[2] = tested on: Burkholderia cepacia complex; experiment: Checkerboard FIC/FICI assay; format: cell-based, Burkholderia spp.
[3] = tested on: Candida krusei; experiment: Antifungal broth microdilution (Example 13); format: cell-based; conditions: for MIC2: 50% inhibition; for MIC0: complete inhibition
[4] = tested on: fungal pathogens; experiment: Antifungal activity, NIH/NIAID sponsored study; format: cell-based; conditions: for Antifungal activity, MIC 50%: 50% endpoint; for Antifungal activity, MIC 100% / MIC: 100% endpoint
[5] = tested on: Haemophilus influenzae; experiment: Broth microdilution MIC, Haemophilus influenzae clinical isolates; format: cell-based
[6] = tested on: P. aeruginosa; experiment: Broth microdilution MIC (Example 10); format: cell-based, Pseudomonas aeruginosa; conditions: initial MIC testing
[7] = Particle size distribution of BisEDT samples vs processing conditions; format: physicochemical
[8] = P. aeruginosa 6977, Aztreonam in combination with BisEDT
[9] = B. cepacia 546, Aztreonam in combination with BisEDT, by checkerboard
[10] = C. krusei ATCC 14243, Susceptible
[11] = C. krusei ATCC 96685, Susceptible
[12] = C. krusei MMX 7125, Susceptible
[13] = C. krusei MMX 7128, Susceptible
[14] = C. krusei MMX 7141, Susceptible
[15] = C. krusei MMX 7155, Susceptible
[16] = C. krusei MMX 7563, Susceptible
[17] = C. krusei MMX 9878, MICA-I, VORI-I
[18] = particle size distribution of BisEDT samples
[19] = P. aeruginosa 6322, Colistin in combination with BisEDT
[20] = P. aeruginosa 6977, Colistin in combination with BisEDT
[21] = P. aeruginosa 7745, Colistin in combination with BisEDT

Molecule: C[C@H]1[C@H](NC(=O)/C(=N\OC(C)(C)C(=O)O)c2csc(N)n2)C(=O)N1S(=O)(=O)O [Aztreonam]
- FICB [1, 8]: 1
- MICB [1, 8]: 64 µg/mL
- FICB ([2]; B. cenocepacia 548, FIC of Aztreonam (Drug B) in combination with BisEDT): 1
- MICB ([2]; B. cenocepacia 548, MIC of Aztreonam (Drug B) in combination with BisEDT): 64 µg/mL
- FICB ([2]; B. cenocepacia 813, FIC of Aztreonam (Drug B) in combination with BisEDT): 1
- MICB ([2]; B. cenocepacia 813, MIC of Aztreonam (Drug B) in combination with BisEDT): 32 µg/mL
- FICB [2, 9]: 1
- MICB [2, 9]: 32 µg/mL
- FICB ([2]; B. cepacia 1793, FIC of Aztreonam (Drug B) in combination with BisEDT): 1
- MICB ([2]; B. cepacia 1793, MIC of Aztreonam (Drug B) in combination with BisEDT): 128 µg/mL
- MIC ([2]; B. multivorans 1795, Aztreonam alone, panel with BisEDT, read-out: Drug B MIC): 16 µg/mL
- FICB ([2]; B. multivorans 1795, FIC of Aztreonam (Drug B) in combination with BisEDT): 1 and 2
- MICB ([2]; B. multivorans 1795, MIC of Aztreonam (Drug B) in combination with BisEDT): 16 µg/mL and 32 µg/mL

Molecule: C1C[S][Bi]([S]CC[S][Bi]2[S]CC[S]2)[S]1 [BisEBT]
- MIC2 ([3]; C. krusei ATCC 6258, MICA-I): 0.5 µg/mL
- MIC0 ([3]; C. krusei ATCC 6258, MICA-I): 1 µg/mL
- MIC2 [3, 10]: 0.5 µg/mL
- MIC0 [3, 10]: 1 µg/mL
- MIC2 [3, 11]: 0.25 µg/mL
- MIC0 [3, 11]: 0.5 µg/mL
- MIC2 [3, 12]: 0.5 µg/mL
- MIC0 [3, 12]: 1 µg/mL
- MIC2 [3, 13]: 0.5 µg/mL
- MIC0 [3, 13]: 1 µg/mL
- MIC2 [3, 14]: 0.5 µg/mL
- MIC0 [3, 14]: 1 µg/mL
- MIC2 ([3]; C. krusei MMX 7153, MICA-R): 0.5 µg/mL
- MIC0 ([3]; C. krusei MMX 7153, MICA-R): 1 µg/mL
- MIC2 [3, 15]: 0.5 µg/mL
- MIC0 [3, 15]: 1 µg/mL
- MIC2 [3, 16]: 0.5 µg/mL
- MIC0 [3, 16]: 1 µg/mL
- MIC2 [3, 17]: 0.5 µg/mL
- MIC0 [3, 17]: 1 µg/mL

Molecule: C1C[S][Bi]([S]CC[S][Bi]2[S]CC[S]2)[S]1 [BisEQT]
- Antifungal activity, MIC 50% ([4]; A. fumigatus AF1): 8 µg/mL
- Antifungal activity, MIC 100% ([4]; A. fumigatus AF1): 16 µg/mL
- Antifungal activity, MIC 50% ([4]; A. fumigatus AF2): 4 µg/mL
- Antifungal activity, MIC 100% ([4]; A. fumigatus AF2): 16 µg/mL
- Antifungal activity, MIC 50% ([4]; A. fumigatus AF3): 4 µg/mL
- Antifungal activity, MIC 100% ([4]; A. fumigatus AF3): 16 µg/mL
- Antifungal activity, MIC 50% ([4]; C. albicans CA1): 4 µg/mL
- Antifungal activity, MIC 100% ([4]; C. albicans CA1): 8 µg/mL
- Antifungal activity, MIC 50% ([4]; C. albicans CA2): 2 µg/mL
- Antifungal activity, MIC 100% ([4]; C. albicans CA2): 8 µg/mL
- Antifungal activity, MIC 50% ([4]; C. albicans CA3): 4 µg/mL
- Antifungal activity, MIC 100% ([4]; C. albicans CA3): 16 µg/mL
- Antifungal activity, MIC 50% ([4]; C. auris Cau1): 4 µg/mL
- Antifungal activity, MIC 100% ([4]; C. auris Cau1): 16 µg/mL
- Antifungal activity, MIC 50% ([4]; C. auris Cau2): 2 µg/mL
- Antifungal activity, MIC 100% ([4]; C. auris Cau2): 8 µg/mL
- Antifungal activity, MIC 50% ([4]; C. auris Cau3): 4 µg/mL
- Antifungal activity, MIC 100% ([4]; C. auris Cau3): 8 µg/mL
- Antifungal activity, MIC 50% ([4]; C. krusei ATCC6258): 1 µg/mL
- Antifungal activity, MIC 100% ([4]; C. krusei ATCC6258): 4 µg/mL
- Antifungal activity, MIC 50% ([4]; C. neoformans CN1): 2 µg/mL
- Antifungal activity, MIC 100% ([4]; C. neoformans CN1): 8 µg/mL
- Antifungal activity, MIC 50% ([4]; C. neoformans CN2): 4 µg/mL
- Antifungal activity, MIC 100% ([4]; C. neoformans CN2): 8 µg/mL
- Antifungal activity, MIC 50% ([4]; C. neoformans CN3): 4 µg/mL
- Antifungal activity, MIC 100% ([4]; C. neoformans CN3): 16 µg/mL
- Antifungal activity, MIC 50% ([4]; C. parapsilosis ATCC22019): 1 µg/mL
- Antifungal activity, MIC 100% ([4]; C. parapsilosis ATCC22019): 4 µg/mL
- Antifungal activity, MIC 50% ([4]; P. variotii CLSI QC): 4 µg/mL
- Antifungal activity, MIC 100% ([4]; P. variotii CLSI QC): 16 µg/mL
- Antifungal activity, MIC 50% ([4]; R. arrhizus RA1): 8 µg/mL
- Antifungal activity, MIC 100% ([4]; R. arrhizus RA1): 16 µg/mL
- Antifungal activity, MIC 50% ([4]; R. arrhizus RA2): 4 µg/mL
- Antifungal activity, MIC 100% ([4]; R. arrhizus RA2): 8 µg/mL
- Antifungal activity, MIC 50% ([4]; R. arrhizus RA3): 4 µg/mL
- Antifungal activity, MIC 100% ([4]; R. arrhizus RA3): 8 µg/mL

Molecule: CO/N=C(\C(=O)N[C@@H]1C(=O)N2C(C(=O)O)=C(COC(N)=O)CS[C@H]12)c1ccco1 [CFA]
- MIC ([5]; H. influenzae MMX 0797, BLNAR): 4 µg/mL (≈ 9.43 µM)
- MIC ([5]; H. influenzae MMX 1224 (ATCC 49247)): 4 µg/mL (≈ 9.43 µM)
- MIC ([5]; H. influenzae MMX 1302): 2 µg/mL (≈ 4.71 µM)
- MIC ([5]; H. influenzae MMX 1304): 64 µg/mL (≈ 151 µM)
- MIC ([5]; H. influenzae MMX 1740): 8 µg/mL (≈ 18.9 µM)
- MIC ([5]; H. influenzae MMX 1741): 4 µg/mL (≈ 9.43 µM)
- MIC ([5]; H. influenzae MMX 2795, BLNAR): 1 µg/mL (≈ 2.36 µM)
- MIC ([5]; H. influenzae MMX 2796, BLNAR): 4 µg/mL (≈ 9.43 µM)
- MIC ([5]; H. influenzae MMX 2798, BLNAR): 4 µg/mL (≈ 9.43 µM)
- MIC ([5]; H. influenzae MMX 2799, BLNAR): 8 µg/mL (≈ 18.9 µM)
- MIC ([5]; H. influenzae MMX 5458): 16 µg/mL (≈ 37.7 µM)
- MIC ([5]; H. influenzae MMX 5461): 8 µg/mL (≈ 18.9 µM)
- MIC ([5]; H. influenzae MMX 5469): 4 µg/mL (≈ 9.43 µM)
- MIC ([5]; H. influenzae MMX 5494): 0.5 µg/mL (≈ 1.18 µM)
- MIC ([5]; H. influenzae MMX 5495): 2 µg/mL (≈ 4.71 µM)
- MIC ([5]; H. influenzae MMX 5499): 1 µg/mL (≈ 2.36 µM)

Molecule: O=C(O)c1cn(C2CC2)c2cc(N3CCNCC3)c(F)cc2c1=O [CIP]
- MIC ([6]; P. aeruginosa isolate 1553 (TOB-R, AMK-R, CIP-R)): 4 µg/mL (≈ 12.1 µM)
- MIC ([6]; P. aeruginosa isolate 7745 (MEM-R, CIP-R, AZT-R)): 4 µg/mL (≈ 12.1 µM)
- MIC ([6]; P. aeruginosa isolate 7762 (MEM-I, CIP-I)): 7 µg/mL (≈ 21.1 µM)
- MIC ([6]; P. aeruginosa isolate 8798 (MEM-R, TOB-R, AMK-R, CIP-R, AZT-R, COL-R)): 4 µg/mL (≈ 12.1 µM)
- MIC ([1]; isolate 103 (ATCC 25922), during FIC testing, each agent tested alone for QC, one replicate): 1 µg/mL

Molecule: CC[C@@H]([C@H](C)O)n1ncn(-c2ccc(N3CCN(c4ccc(OC[C@@H]5CO[C@@](Cn6cncn6)(c6ccc(F)cc6F)C5)cc4)CC3)cc2)c1=O [Posaconazole]
- MIC ([4]; Paecilomyces variotii, read-out: Antifungal activity, MIC 100%, P. variotii CLSI QC): ≤ 0.03 µg/mL
- MIC ([4]; Rhizopus arrhizus, read-out: Antifungal activity, MIC 100%, R. arrhizus RA1): 4 µg/mL (≈ 5.71 µM)
- MIC ([4]; Rhizopus arrhizus, read-out: Antifungal activity, MIC 100%, R. arrhizus RA2): 0.06 µg/mL (≈ 0.0856 µM)
- MIC ([4]; Rhizopus arrhizus, read-out: Antifungal activity, MIC 100%, R. arrhizus RA3): 0.125 µg/mL (≈ 0.178 µM)

Molecule: C1C[S][Bi]([S]CC[S][Bi]2[S]CC[S]2)[S]1 [Sample 13]
- D(10) ([7]; crystalline BisEDT samples): 0.36 μm
- D(50) ([7]; crystalline BisEDT samples): 0.98 μm
- D(90) ([7]; crystalline BisEDT samples): 2.1 μm
- D[4, 3] ([7]; crystalline BisEDT samples): 1.2 μm
- D(10) [7, 18]: 0.36 μm
- D(50) [7, 18]: 0.98 μm
- D(90) [7, 18]: 2.1 μm
- D[4, 3] [7, 18]: 1.2 μm

Molecule: C1C[S][Bi]([S]CC[S][Bi]2[S]CC[S]2)[S]1 [Sample 14]
- D(10) ([7]; crystalline BisEDT samples): 0.36 μm
- D(50) ([7]; crystalline BisEDT samples): 1.0 μm
- D(90) ([7]; crystalline BisEDT samples): 2.1 μm
- D[4, 3] ([7]; crystalline BisEDT samples): 1.2 μm
- D(10) [7, 18]: 0.36 μm
- D(50) [7, 18]: 1.0 μm
- D(90) [7, 18]: 2.1 μm
- D[4, 3] [7, 18]: 1.2 μm

Molecule: C1C[S][Bi]([S]CC[S][Bi]2[S]CC[S]2)[S]1 [Sample 15]
- D(10) ([7]; crystalline BisEDT samples): 0.32 μm
- D(50) ([7]; crystalline BisEDT samples): 0.72 μm
- D(90) ([7]; crystalline BisEDT samples): 1.6 μm
- D[4, 3] ([7]; crystalline BisEDT samples): 0.86 μm
- D(10) [7, 18]: 0.32 μm
- D(50) [7, 18]: 0.72 μm
- D(90) [7, 18]: 1.6 μm
- D[4, 3] [7, 18]: 0.86 μm

Molecule: NC[C@H]1O[C@H](O[C@H]2[C@H](O)[C@@H](O[C@H]3O[C@H](CO)[C@@H](O)[C@H](N)[C@H]3O)[C@H](N)C[C@@H]2N)[C@H](N)C[C@@H]1O [Topramycin]
- FICB ([2]; B. cepacia 546, Topramycin in combination with BisEDT, by checkerboard): 0.5

Molecule: Colistin
- Drug B MIC ([1]; P. aeruginosa 6322): 0.5 µg/mL
- FICB [1, 19]: 1
- MICB [1, 19]: 0.5 µg/mL
- Drug B MIC ([1]; P. aeruginosa 6977): 1 µg/mL
- FICB [1, 20]: 1
- MICB [1, 20]: 1 µg/mL
- Drug B MIC ([1]; P. aeruginosa 7745): 0.5 µg/mL
- FICB [1, 21]: 1
- MICB [1, 21]: 0.5 µg/mL
- Drug B MIC ([1]; P. aeruginosa 9108): 0.0005 µg/mL
- Drug B MIC ([1]; isolate 8798 (organism name not given)): >0.256 µg/mL
- FICB ([2]; B. multivorans 1795, FIC of Colistin (Drug B) in combination with BisEDT): 1
